Data taken from US20250319095A1, “USE OF BENZO[…] INCREASE SENSITIVITY TO […] A CHRONIC SSRI REGIMEN” (Compass Pathfinder Limited, priority 2020, published 2025).
≈ marks a conversion by molar mass, not a printed value.

How the values were obtained:
[1] = Solubility of psilocybin in water
Mouse [2] = assay: Head twitch response to psilocybin after acute diazepam pretreatment; format: in vivo
Method: (§1) Animals were dosed as detailed by Table 10 below and were placed in a clean cage. The number of head twitches and wet dog shakes were then counted by a scorer for 30 minutes after dosing. The timings of head twitches and wet dog shakes were recorded by a computer program. The experiment was carried out over three days. Scorers were blinded to treatment group.
(§2) Number of head twitches over each 5-minute period and each 15-minute period and the total for 0-30 minutes were square-root transformed and analyzed by three way ANOVA with treatment, day, and scorer as factors. Ethovision data was analyzed by robust regression using M estimation, Huber weighting, using the default parameter C=1.345. The model used treatment, day, and scorer as factors.
(§3) P<0.05 was the level accepted for statistical difference. The chance of a false positive is 5% for each dose for each time. All tests were carried out as two-sided tests.

male C57BL/6J mice = assay: Psilocybin head twitch response with chronic diazepam pre-treatment; format: in vivo
Method: Sixty-two (60 plus 2 spares;) male C57BL/6J mice (20-25 g upon arrival) were purchased from Charles River UK. Animals were group housed (in 3 s and a pair) in polypropylene cages. Mice were maintained on a normal phase 12 h light-dark cycle (lights on: 07:00-19:00 h) with free access to standard rodent maintenance diet (standard pelleted diet Envigo 2018) and filtered tap water. The holding room was maintained at a temperature of 21±4° C. and relative humidity was 55±15% with prolonged periods below 40% RH or above 70% RH avoided as detailed in the UK Code of Practice. As a refinement, each cage contained sawdust, sizzle nest, a red house, Perspex tunnel, plastic chew stick and a nestlet so that the mice can make nests and facilitate warmth. Mice were weighed upon arrival and provided with wet mash overnight. The following morning, mice were weighed, and the mash removed.
Mice were weighed and allocated into 6 treatment groups by a statistician (as per Table 20 below). […] For groups A-D animals were placed individually in clean cages with a light dusting of sawdust immediately following psilocybin administration (0.3 mg/kg, s.c) for head twitch response assessment. Head twitches were counted by a trained observer over a 30 minute period.
Statistical significance was tested using two-way analysis of variance with treatment and observer as cofactors (Table 21 below).

Mouse [3] = assay: Ethovision activity to psilocybin after acute diazepam pretreatment; format: in vivo
Method: as §1
Ethovision data was organized into 5-minute and 15-minute time periods and 0-30 minutes for each animal. Ethovision scores were log transformed, however Shapiro-Wilk tests were significant for many of the 5-minute and 15-minute time windows. Therefore, robust regression was used to analyze the Ethovision data.
as §2, §3

[4] = 0 to 5 mins, Psilocybin 0.3 mg/kg sc 1 hr post Diazepam 4 mg/kg ip or Saline ip
[5] = 0 to 5 mins, Psilocybin 1 mg/kg sc 1 hr post Diazepam 4 mg/kg ip or Saline ip
[6] = 0 to 5 mins, Psilocybin 3 mg/kg sc 1 hr post Diazepam 4 mg/kg ip or Saline ip
[7] = 0 to 15 mins, Psilocybin 0.3 mg/kg sc 1 hr post Diazepam 4 mg/kg ip or Saline ip
[8] = 0 to 15 mins, Psilocybin 1 mg/kg sc 1 hr post Diazepam 4 mg/kg ip or Saline ip
[9] = 0 to 15 mins, Psilocybin 3 mg/kg sc 1 hr post Diazepam 4 mg/kg ip or Saline ip
[10] = 0 to 30 mins (total), Psilocybin 0.3 mg/kg sc 1 hr post Diazepam 4 mg/kg ip or Saline ip
[11] = 0 to 30 mins (total), Psilocybin 1 mg/kg sc 1 hr post Diazepam 4 mg/kg ip or Saline ip
[12] = 0 to 30 mins (total), Psilocybin 3 mg/kg sc 1 hr post Diazepam 4 mg/kg ip or Saline ip
[13] = 5 to 10 mins, Psilocybin 0.3 mg/kg sc 1 hr post Diazepam 4 mg/kg ip or Saline ip
[14] = 5 to 10 mins, Psilocybin 1 mg/kg sc 1 hr post Diazepam 4 mg/kg ip or Saline ip
[15] = 5 to 10 mins, Psilocybin 3 mg/kg sc 1 hr post Diazepam 4 mg/kg ip or Saline ip
[16] = 10 to 15 mins, Psilocybin 0.3 mg/kg sc 1 hr post Diazepam 4 mg/kg ip or Saline ip
[17] = 10 to 15 mins, Psilocybin 1 mg/kg sc 1 hr post Diazepam 4 mg/kg ip or Saline ip
[18] = 10 to 15 mins, Psilocybin 3 mg/kg sc 1 hr post Diazepam 4 mg/kg ip or Saline ip
[19] = 15 to 20 mins, Psilocybin 0.3 mg/kg sc 1 hr post Diazepam 4 mg/kg ip or Saline ip
[20] = 15 to 20 mins, Psilocybin 1 mg/kg sc 1 hr post Diazepam 4 mg/kg ip or Saline ip
[21] = 15 to 20 mins, Psilocybin 3 mg/kg sc 1 hr post Diazepam 4 mg/kg ip or Saline ip
[22] = 15 to 30 mins, Psilocybin 0.3 mg/kg sc 1 hr post Diazepam 4 mg/kg ip or Saline ip
[23] = 15 to 30 mins, Psilocybin 1 mg/kg sc 1 hr post Diazepam 4 mg/kg ip or Saline ip
[24] = 15 to 30 mins, Psilocybin 3 mg/kg sc 1 hr post Diazepam 4 mg/kg ip or Saline ip
[25] = 20 to 25 mins, Psilocybin 0.3 mg/kg sc 1 hr post Diazepam 4 mg/kg ip or Saline ip
[26] = 20 to 25 mins, Psilocybin 1 mg/kg sc 1 hr post Diazepam 4 mg/kg ip or Saline ip
[27] = 20 to 25 mins, Psilocybin 3 mg/kg sc 1 hr post Diazepam 4 mg/kg ip or Saline ip
[28] = 25 to 30 mins, Psilocybin 0.3 mg/kg sc 1 hr post Diazepam 4 mg/kg ip or Saline ip
[29] = 25 to 30 mins, Psilocybin 1 mg/kg sc 1 hr post Diazepam 4 mg/kg ip or Saline ip
[30] = 25 to 30 mins, Psilocybin 3 mg/kg sc 1 hr post Diazepam 4 mg/kg ip or Saline ip

CN(C)CCc1c[nH]c2cccc(OP(=O)(O)O)c12 [Psilocybin, psilocybin]
solubility [1]: ~15 mg/mL (≈ 52.8 mM) | Head twitches Mean (Mouse [2]; [4]): 1.84 | Head twitches Mean (Mouse [2]; [5]): 2.42 | Head twitches Mean (Mouse [2]; [6]): 5.34 | Head twitches Mean (Mouse [2]; [7]): 5.57 | Head twitches Mean (Mouse [2]; [8]): 6.32 | Head twitches Mean (Mouse [2]; [9]): 12.4 | Head twitches Mean (Mouse [2]; [10]): 8.38 | Head twitches Mean (Mouse [2]; [11]): 8.98 | Head twitches Mean (Mouse [2]; [12]): 15.66 | Head twitches Mean (Mouse [2]; [13]): 1.64 | Head twitches Mean (Mouse [2]; [14]): 1.39 | Head twitches Mean (Mouse [2]; [15]): 4.67 | Head twitches Mean (Mouse [2]; [16]): 1.36 | Head twitches Mean (Mouse [2]; [17]): 1.44 | Head twitches Mean (Mouse [2]; [18]): 2.07 | Head twitches Mean (Mouse [2]; [19]): 0.93 | Head twitches Mean (Mouse [2]; [20]): 1.35 | Head twitches Mean (Mouse [2]; [21]): 1.07 | Head twitches Mean (Mouse [2]; [22]): 2.57 | Head twitches Mean (Mouse [2]; [23]): 2.39 | Head twitches Mean (Mouse [2]; [24]): 2.5 | Head twitches Mean (Mouse [2]; [25]): 0.39 | Head twitches Mean (Mouse [2]; [26]): 0.43 | Head twitches Mean (Mouse [2]; [27]): 0.66 | Head twitches Mean (Mouse [2]; [28]): 0.59 | Head twitches Mean (Mouse [2]; [29]): 0.15 | Head twitches Mean (Mouse [2]; [30]): 0.34 | Mean head twitch responses (male C57BL/6J mice; 0-5 mins, Psilocybin 0.3 mg/kg sc 2 hr post Diazepam 1.25 mg/kg ip bid 14 days or Saline ip bid): 0.76 | Mean head twitch responses (male C57BL/6J mice; 0-5 mins, Psilocybin 0.3 mg/kg sc 24 hr post Diazepam 1.25 mg/kg ip bid 14 days or Saline ip bid): 1.81 | Mean head twitch responses (male C57BL/6J mice; 0-15 mins, Psilocybin 0.3 mg/kg sc 2 hr post Diazepam 1.25 mg/kg ip bid 14 days or Saline ip bid): 2.93 | Mean head twitch responses (male C57BL/6J mice; 0-15 mins, Psilocybin 0.3 mg/kg sc 24 hr post Diazepam 1.25 mg/kg ip bid 14 days or Saline ip bid): 5.65 | Mean head twitch responses (male C57BL/6J mice; 0-30 mins, Psilocybin 0.3 mg/kg sc 2 hr post Diazepam 1.25 mg/kg ip bid 14 days or Saline ip bid): 5.78 | Mean head twitch responses (male C57BL/6J mice; 0-30 mins, Psilocybin 0.3 mg/kg sc 24 hr post Diazepam 1.25 mg/kg ip bid 14 days or Saline ip bid): 9.70 | Mean head twitch responses (male C57BL/6J mice; 5-10 mins, Psilocybin 0.3 mg/kg sc 2 hr post Diazepam 1.25 mg/kg ip bid 14 days or Saline ip bid): 0.81 | Mean head twitch responses (male C57BL/6J mice; 5-10 mins, Psilocybin 0.3 mg/kg sc 24 hr post Diazepam 1.25 mg/kg ip bid 14 days or Saline ip bid): 2.25 | Mean head twitch responses (male C57BL/6J mice; 10-15 mins, Psilocybin 0.3 mg/kg sc 2 hr post Diazepam 1.25 mg/kg ip bid 14 days or Saline ip bid): 0.81 | Mean head twitch responses (male C57BL/6J mice; 10-15 mins, Psilocybin 0.3 mg/kg sc 24 hr post Diazepam 1.25 mg/kg ip bid 14 days or Saline ip bid): 1.04 | Mean head twitch responses (male C57BL/6J mice; 15-20 mins, Psilocybin 0.3 mg/kg sc 2 hr post Diazepam 1.25 mg/kg ip bid 14 days or Saline ip bid): 0.60 | Mean head twitch responses (male C57BL/6J mice; 15-20 mins, Psilocybin 0.3 mg/kg sc 24 hr post Diazepam 1.25 mg/kg ip bid 14 days or Saline ip bid): 1.70 | Mean head twitch responses (male C57BL/6J mice; 15-30 mins, Psilocybin 0.3 mg/kg sc 2 hr post Diazepam 1.25 mg/kg ip bid 14 days or Saline ip bid): 2.35 | Mean head twitch responses (male C57BL/6J mice; 15-30 mins, Psilocybin 0.3 mg/kg sc 24 hr post Diazepam 1.25 mg/kg ip bid 14 days or Saline ip bid): 3.60 | Mean head twitch responses (male C57BL/6J mice; 20-25 mins, Psilocybin 0.3 mg/kg sc 2 hr post Diazepam 1.25 mg/kg ip bid 14 days or Saline ip bid): 0.32 | Mean head twitch responses (male C57BL/6J mice; 20-25 mins, Psilocybin 0.3 mg/kg sc 24 hr post Diazepam 1.25 mg/kg ip bid 14 days or Saline ip bid): 0.43 | Mean head twitch responses (male C57BL/6J mice; 25-30 mins, Psilocybin 0.3 mg/kg sc 2 hr post Diazepam 1.25 mg/kg ip bid 14 days or Saline ip bid): 0.80 | Mean head twitch responses (male C57BL/6J mice; 25-30 mins, Psilocybin 0.3 mg/kg sc 24 hr post Diazepam 1.25 mg/kg ip bid 14 days or Saline ip bid): 1.16 | Ethovision data Mean (Mouse [3]; [4]): 801.48 | Ethovision data Mean (Mouse [3]; [5]): 826.56 | Ethovision data Mean (Mouse [3]; [6]): 785.38 | Ethovision data Mean (Mouse [3]; [7]): 2149.79 | Ethovision data Mean (Mouse [3]; [8]): 2025.10 | Ethovision data Mean (Mouse [3]; [9]): 1667.64 | Ethovision data Mean (Mouse [3]; [10]): 3782.48 | Ethovision data Mean (Mouse [3]; [11]): 3368.87 | Ethovision data Mean (Mouse [3]; [12]): 2403.79 | Ethovision data Mean (Mouse [3]; [13]): 704.55 | Ethovision data Mean (Mouse [3]; [14]): 665.97 | Ethovision data Mean (Mouse [3]; [15]): 516.00 | Ethovision data Mean (Mouse [3]; [16]): 641.76 | Ethovision data Mean (Mouse [3]; [17]): 519.27 | Ethovision data Mean (Mouse [3]; [18]): 353.03 | Ethovision data Mean (Mouse [3]; [19]): 517.51 | Ethovision data Mean (Mouse [3]; [20]): 430.23 | Ethovision data Mean (Mouse [3]; [21]): 271.26 | Ethovision data Mean (Mouse [3]; [22]): 1630.42 | Ethovision data Mean (Mouse [3]; [23]): 1337.33 | Ethovision data Mean (Mouse [3]; [24]): 719.96 | Ethovision data Mean (Mouse [3]; [25]): 519.96 | Ethovision data Mean (Mouse [3]; [26]): 444.11 | Ethovision data Mean (Mouse [3]; [27]): 208.90 | Ethovision data Mean (Mouse [3]; [28]): 551.06 | Ethovision data Mean (Mouse [3]; [29]): 430.12 | Ethovision data Mean (Mouse [3]; [30]): 213.04
